Source: publication PMC7984827, “A high-content AlphaScreen™ identifies E6-specific small molecule inhibitors as potential therapeutics for HPV^+ head and neck squamous cell carcinomas” (Oncotarget, 2021)
Where two headings read alike, the source gives them in different places.

Key:
[1] = parameters: method as in PMID 18384990, PMID 29077076; settings: toxicities to organs only at high concentrations; cited from earlier work
E6-Caspase 8 binding = target: T1, E6-Caspase 8 binding (Human papillomavirus type 16, UniProt P03126); test: biochemical; parameters: species or system HPV E6, human Caspase 8; settings: for activity against E6-caspase 8 binding, deviation from the parent compound (less active): relative to gambogic acid; for inhibitory activity against E6-caspase 8 binding relative to GA (in words): SAR of analogs, Figure 6A
T1 construct: made in house; host or cells: E. coli
T1 sequence (P03126 whole entry): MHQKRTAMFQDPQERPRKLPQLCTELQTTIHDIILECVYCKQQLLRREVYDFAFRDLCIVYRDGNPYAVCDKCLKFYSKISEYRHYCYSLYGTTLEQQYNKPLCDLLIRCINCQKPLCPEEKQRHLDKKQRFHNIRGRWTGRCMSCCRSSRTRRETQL
Experimental: The compounds were diluted to a working concentration in DMSO and screened at a single-point final concentration of 10 μM with no replicates. Briefly, 75 nL of each compound was transferred and added to wells of the destination 384-well plate using the Echo dispenser to 4 μL of blocking solution. 4 μL of 800 nM GST-E6 and 4 μL of His6-Caspase 8 were added and pre-incubated at room temperature for 60 minutes. 8 μL of the donor and acceptor bead mixture (final concentration of 20 μg/ml) was then added. The plates were sealed and incubated for 4 hours at room temperature before the plates were read using the EnvisionTM Multi-Label plate reader (Perkin Elmer Inc.). […] A 10-point serial dilution of these compounds was done for dose-dependency reconfirmation. Dose response inhibition curves were constructed and IC50 calculated using GraphPad Prism using four parameter non-linear regression analysis.
The first counter-screen assay was based using the GST-His6 fusion peptide as the E6-binding partner instead of GST-E6-His6-Caspase 8. Hit candidate compounds from the primary screen were prepared using a 6-point serial dilution. Using an Echo dispenser, compounds were transferred to plates containing 4 μL of blocking buffer. 8 μL of 5 nM GST-His6 peptide substrate was then added. The mixture was pre-incubated at room temperature for 60 minutes. Glutathione donor and nickel chelate acceptor beads (final concentration 20 μg/mL) were added and incubated for another 60 minutes at room temperature. Dose-dependency of the compounds using GST-E6-His6-Caspase 8 was performed in parallel using the same protocol as in the primary screen. The signals were then read using the Envision™ plate reader.
(§1) Using the SciFinder and Zinc15 databases, we searched and identified several gambogic acid structural analogs. A subset of these analogues was commercially available and we purchased 8. The 8 analogs were obtained as follow: gambogenic amide (Enzo Life Sciences), gambogenic acid (Selleckchem), morellic acid (Aobious), 30-hydroxy gambogic acid (Quality Phytochemicals, LLC), acetyl gambogic acid (Microsource), and gambogin, neogambogic acid and isomorellinol (MolPort Natural Products). Additional gambogic acid was purchased from Tocris. The interactions of the analogues with E6-caspase 8 was tested using AlphaScreen™ technology using the same protocol as with the primary screen, and were compared to the parent compound. The effect on cell viability was also similarly done in HPV^+ and HPV^- cell lines via the MTT assay (see below) and potency was determined using GraphPad IC50 curve fitting.

E6-E6AP binding = target: T2, E6-E6AP binding (Human papillomavirus type 16, UniProt P03126); test: biochemical; parameters: species or system HPV E6
T2 construct: made in house; host or cells: E. coli
T2 sequence (P03126 whole entry): as above
Excerpt: Compounds that passed the two counter-screens were subjected to cheminformatic analysis as an additional filter for recognition and exclusion of compounds with problematic substructures. These substructures contain functional groups that may disrupt binding in many unrelated biochemical assays in a non-specific manner. Specifically, from the names and SMILES of the hit compounds we queried the following databases to find hits with pan assay interference (PAINS) patterns: Zinc15, SwissADME, FAFdrugs4 and PAINS-Remover. Compounds that made it onto the consensus list as having no PAINS patterns after filtering with these online tools were then selected. We then cross-validated the selected compound(s) with a related but different primary screen assay. Specifically, we replaced the caspase 8 used in the primary screen with E6AP and evaluated the inhibitory activity against E6 binding to E6AP (E6-E6AP) using the same steps as in the AlphaScreen™ protocol described above.

[2] = test system: HPV+ HNSCC cell line SCC104; test: MTT cell viability assay of analogs in SCC104; type: cell-based; settings: SCC104, 24 hr; for activity / potency in cell-based MTT assay (in words): Figure 6B
Excerpt: as §1
(§2) All working concentrations were diluted in PBS to the desired concentration before use. To test the effect of gambogic acid and/or its derivatives on cell viability, all cell lines were seeded at 2 × 10^4 per well in 96-well plates and allowed to adhere overnight. Various concentrations of the analogues were added and the cells incubated at 37°C for 24 hr. Viability was then measured using the MTT assay, performed as described previously. All experiments were repeated at least three times (three biological replicates, carried out on different days). Data presented are from a representative experiment. Cell viability and potency were assessed from % inhibition relative to the vehicle control, and IC50 dose curves were generated using GraphPad Prism.

[3] = test system: Caspase 3/7 activity in SCC19, SCC84; test: Caspase 3/7 Glo activity assay, HPV- cell lines; type: cell-based; settings: 0.75 μM, 24 hr
Experimental: (§3) Cells were seeded into white walled 96-well plates at 2 × 10^4 cells per well in 100 μL media and incubated overnight. GA-OH (0.75 μM) and vehicle were then added and incubated at 37°C for 24 hr. Caspase 3/7 activity was measured using the Caspase 3/7 Glo kit (Promega, Fitchburg, WI, USA) following the manufacturer's instructions. Briefly, room temperature-equilibrated Caspase-Glo reagent was added (Promega) to each well. The plate was mixed by placing it on an orbital shaker and incubated for 30 secs at room temperature, then incubated at room temperature. After a 2-hr incubation, luminescence was measured using a plate-reading fluorimeter (Flx800, Bio-Tek Instrument Co., Winooski, VT, USA). Background activity (blank reaction) was subtracted from all experimental wells. Percent activity of caspase 3/7 in wells treated with GA was then expressed relative to vehicle treated wells.

[4] = test system: Caspase 3/7 activity in SCC090, SCC104, SiHa; test: Caspase 3/7 Glo activity assay, HPV+ cell lines; type: cell-based; settings: 0.75 μM, 24 hr
Experimental: as §3

SCC19 (HPV-) = test: Colony formation assay, SCC19; type: cell-based; settings: 24 hours treatment then seeded
Experimental: (§4) Sub-confluent monolayer cells were treated with different doses of GA-OH for 24 hours. Cells were trypsinized and re-suspended before re-plating into 6 well plates in DMEM or MEM at 500–1000 cell densities, depending on the cell line. Cells were then allowed to grow for 10–20 days, depending on the cell line, before fixing and staining. A mixture of methanol/acetic acid was used for fixing, followed by 0.5% crystal violet staining. Plates were imaged using UV imager, and colonies with more than […] counted using image J. Surviving fractions were determined by dividing the number of colonies by the number of cells seeded as a product of the corresponding plating efficiency. Survival fractions curves were plotted using GraphPad Prism.

SCC104 (HPV+) = test: Colony formation assay, SCC104; type: cell-based; settings: 24 hours treatment then seeded
Experimental: as §4

[5] = test system: p53, p21, caspase 8 in SCC90 and SCC104 cells; test: Western blotting of p53, p21 and caspase 8 in HPV+ cells; type: cell-based; settings: 24 hours
Experimental: Adherent cells were washed with ice cold PBS. Cell lysis buffer containing protease inhibitor cocktail was added and cells were scraped off into a tube on ice. The cells were incubated on ice for 10 minutes. Cell lysates were separated by SDS-PAGE and electrophoretically transferred to PVDF membranes. Following blocking, antibodies directed against caspase 8, p53, cleaved PARP, cleaved caspase 3, p21, and β-actin (Cell signaling) were applied at 1:5000 dilution. Anti-mouse and anti-rabbit secondary antibodies were then employed (LI-COR Biosciences, Lincoln, NE, USA). Signals were measured using the Odyssey Infrared Imaging system (LI-COR Biosciences) and quantified using Image J.

[6] = test system: HPV+ (SCC47, SCC090, SCC104, SCC152) and HPV- (SCC19, SCC29, SCC49, SCC84) HNSCC cell lines; test: MTT cell viability, HNSCC cell line panel; type: cell-based; settings: 24 hr, Figure 7A
Experimental: as §2

CC(C)=CCC[C@]1(C)C=Cc2c(O)c3c(c(CC=C(C)C)c2O1)O[C@]12C(=C[C@@H]4C[C@H]1C(C)(C)O[C@@]2(C/C=C(/C)C(=O)O)C4=O)C3=O [gambogic acid]
tolerability in animal studies [1]: relatively tolerable
IC50 (E6-Caspase 8 binding; 11 compounds that passed counter-screening (Supplementary Table 3), read-out: IC50 against E6-Caspase 8 binding): 2000 nM
IC50 (E6-Caspase 8 binding; head-to-head comparison gambogic acid vs myricetin (Figure 4A), read-out: IC50 against E6-Caspase 8): 1900 nM
IC50 (E6-E6AP binding): 1700 nM

CC(C)=CCCC1(C)CC(O)c2c(O)c3c(c(CC=C(C)C)c2O1)OC12C(=CC4CC1C(C)(C)OC2(C/C=C(\C)C(=O)O)C4=O)C3=O (stereo not drawn) [analog #5, neo-gambogic acid]
rank of highest IC50 relative to the parent compound, MTT [2]: fourth
activity against E6-caspase 8 binding, deviation from the parent compound (less active) (E6-Caspase 8 binding): > 3 logs

CC(C)=CCCC1(C)C=Cc2c(O)c3c(c(CC=C(C)C)c2O1)O[C@]12C(=CC4C[C@H]1C(C)(C)OC2(CC=C(C)C)C4=O)C3=O (stereo partly drawn) [analog #6, gambogin]
rank of highest IC50 relative to the parent compound, MTT [2]: first
activity against E6-caspase 8 binding, deviation from the parent compound (less active) (E6-Caspase 8 binding): > 3 logs

O=c1c(O)c(-c2cc(O)c(O)c(O)c2)oc2cc(O)cc(O)c12 [myricetin, reference compound]
IC50 (E6-Caspase 8 binding; IC50 against E6-Caspase 8): 4600 nM
IC50 (E6-E6AP binding): 5600 nM

CC(C)=CCc1c2c(c(O)c3c1O[C@]14C(=C[C@@H]5C[C@H]1C(C)(C)O[C@@]4(C/C=C(/C)C(=O)O)C5=O)C3=O)C=CC(C)(C)O2 [analog #2, morellic acid]
inhibitory activity against E6-caspase 8 binding relative to GA (in words) (E6-Caspase 8 binding): did not significantly affect the activity

CC(C)=CCC[C@]1(C)C=Cc2c(O)c3c(c(CC=C(C)C)c2O1)O[C@]12C(=C[C@@H]4CC1C(C)(C)O[C@@]2(C/C=C(/C)C(N)=O)C4=O)C3=O [analog #4, gambogic amide]
inhibitory activity against E6-caspase 8 binding relative to GA (in words) (E6-Caspase 8 binding): did not significantly affect the activity

CC(=O)Oc1c2c(c(CC=C(C)C)c3c1C(=O)C1=C[C@@H]4CC5C(C)(C)OC(C/C=C(\C)C(=O)O)(C4=O)[C@@]15O3)OC(C)(CCC=C(C)C)C=C2 (stereo partly drawn) [analog #8, acetyl iso-gambogic acid]
activity / potency in cell-based MTT assay (in words) [2]: diminished activity
inhibitory activity against E6-caspase 8 binding relative to GA (in words) (E6-Caspase 8 binding): did not significantly affect the activity

CC(C)=CCCC1(C)C=Cc2c(O)c3c(c(CC=C(C)C)c2O1)OC12C(=CC4CC1C(C)(C)OC2(CC=C(CO)C(=O)O)C4=O)C3=O (stereo not drawn) [GA-OH, 30-hydroxygambogic acid]
apoptosis activity (Caspase 3/7 activity) [3]: little to no apoptosis activity
apoptosis induction (Caspase 3/7 activity) [4]: Significant apoptosis induction
number of colonies (SCC19 (HPV-)): did not exhibit significant reduction relative to their control except at high concentrations
activity / potency in cell-based MTT assay (in words) [2]: highest potency of all analogs
number of colonies (SCC104 (HPV+)): significantly and dose-dependently reduced
caspase 8 cleavage by western blot ([5]; HPV+ cells, 0.5 μM and 1 μM): cleavage of caspase 8 in a dose-dependent manner
p53 level by immunoblotting ([5]; SCC90 and SCC104, 0.5 μM and 1 μM): increase of p53
p21 level by immunoblotting ([5]; compared to vehicle control, 0.5 μM and 1 μM): robust induction
sensitivity of HPV+ versus HPV- HNSCC cell lines, MTT cell viability [6]: higher sensitivity
inhibitory activity against E6-caspase 8 binding relative to GA (in words) (E6-Caspase 8 binding): more effectively inhibited E6 binding to caspase 8 than any of the other analogs or the parent compound

CC(C)=CCc1c2c(c(O)c3c1OC14C(=CC5CC1C(C)(C)OC4(C/C=C(\C)CO)C5=O)C3=O)C=CC(C)(C)O2 (stereo not drawn) [analog #7, iso morellinol]
inhibitory activity against E6-caspase 8 binding relative to GA (in words) (E6-Caspase 8 binding): did not significantly affect the activity

CC(C)=CCC/C(C)=C/Cc1c(O)c(CC=C(C)C)c2c(c1O)C(=O)C1=C[C@@H]3C[C@H]4C(C)(C)O[C@@](C/C=C(/C)C(=O)O)(C3=O)[C@@]14O2 [analog #3, gambogenic acid]
rank of highest IC50 relative to the parent compound, MTT [2]: third
activity against E6-caspase 8 binding, deviation from the parent compound (less active) (E6-Caspase 8 binding): > 3 logs
